Holding throughout (assay type): cell-based, Human
Data set [1] has as its system PC-9. Kind of data set: Apoptosis assay (Annexin V-FITC/PI flow cytometry), PC-9. The following applies: 48 h. How it is done:
(§1) Further, the effects of 9e and 9p on the apoptosis of tumor cells were studied to get details of the suppression of cell proliferation caused by these compounds. PC-9 and H460 cells treated with different concentrations of 9e or 9p were stained with Annexin V-FITC and PI, and the numbers of apoptosis cells were analyzed by the flow cytometry.
(§2) PC-9 and H460 cells were cultured in 6-well plates with a density of 3 × 10^5 cells/well. Different concentrations of 9e or 9p were added to cells for 48 h respectively. The concentrations were 0, 2, 4, and 8 µM for PC-9 cells and 0, 4, 8 and 16 µM for H460 cells. After treatment, Annexin V-FITC Apoptosis Detection Kit was used to determine the apoptotic ratio and FlowJo software v10 was used to analyze of the results.
In general terms: Flow cytometry measures light scatter and fluorescence of single cells or particles in a stream.

For data set [2], the system named is H460. The data set can be described thus: Cellular ROS measurement (DCFH-DA), H460. Particulars: H460, 5 µM and 10 µM, 24 h, DCFH-DA staining. The protocol:
Reactive oxygen species could induce cell death and suppress cell growth and proliferation. To assess the role of compounds 9e and 9p in ROS generation, different cancer cell lines were treated with 9e or 9p for 24 h. DCFDA was used to stain cells and ROS was detected with fluorescent microscope.
PC-9 and H460 cells were cultured in 96-well plates in a density of 5 × 10^3 cells/well. Different concentrations (0, 5 and 10 µM) of 9e or 9p were added to cells respectively for 24 h. After treatment, cells were stimulated with 10 µM DCFH-DA for 30 min at 37 °C, then observed and photographed using a fluorescent microscope.

In data set [3] the test system is H460. The data set can be described thus: Apoptosis assay (Annexin V-FITC/PI flow cytometry), H460. Particulars: 48 h. The protocol:
as §1, §2

Data set [4] relates to β-catenin. The data set can be described thus: Western blot of β-catenin in PC-9 cells. The following applies: PC-9, 0, 2, 4, 8 µM, 48 h. The source says:
(§3) To determine the role of compounds 9e and 9p on regulating the development of cell proliferation, expressions of key proteins which were involved in cell growth progresses such as autophagy, apoptosis, cell cycle and DNA damage were examined. Ubiquitin like molecule light chain 3 (LC3) is a key marker of autophagy. […] Caspase3, which is one of the key proteins in regulating apoptosis, however, was not changed in tumor cells after treated with 9e or 9p. Cell cycle regulation proteins such as CyclinD, CyclinE or β-catenin were also not affected when PC-9 was treated with 9e or 9p. Further, H2AX variant histone (γ-H2AX), which was responsible for DNA damage, was also not affected when PC-9 were treated with 9e or 9p.
(§4) Protein expression levels were measured by western blot. PC-9 cells were cultured in 12-well plates and different concentrations (0, 2, 4, 8µM) of 9e and 9p were added for 48 h. Proteins were extracted from whole cells using radioimmunoprecipitation assay (RIPA). Buffer containing protease/phosphatase inhibitor cocktail (CST). Sodium dodecyl sulfate (10-15%) polyacrylamide gel electrophoresis and nitrocellulose membranes (Millipore) were used to separate and collect proteins. Antibodies used include, LC3 (3868s, CST), Caspase3 (9662, CST), cyclin D (2922s, CST), cyclin E (20808s, CST), γ-H2AX (9718s, CST), and β-actin (4967s, CST).
In general terms: A western blot detects proteins with antibodies after separation by electrophoresis.

For data set [5], the system named is PC-9. Kind of data set: CCK8 cell viability assay, PC-9. The following applies: for Cell viability (100%): PC9, 20 µM, 48 h, CCK8, control = 100%; for IC50: PC9, 48 h, CCK8, mean ± SE. The protocol: (§5) At first, CCK8 assay was carried out to evaluate the anti-proliferative activity of dolutegravir-1,2,3-triazole derivatives against different cancer cell lines. The results of cell viability of three lung cancer cell lines A549, PC-9 and H460 in the presence of compounds 9 and 10 are summarized in Table 2. Cells were treated with different compounds at the concentration of 20 µM for 48 h. […] Human lung cancer cell lines A549, PC-9 and H460 were all obtained from ATCC. Cells were cultured in DMEM or RPMI 1640 medium containing 10% FBS and 1% penicillin/streptomycin at 37 °C with a 5% CO2-humidified atmosphere. CCK8 assay was used to measure cell viability. Cells with a density of 1 × 10^4 cells/well were seeded on the 96-well plates. After adhesion, cells were treated with different diluted compounds or vehicle control DMSO and continue cultured for 48 h. Then, CCK8 reagent was added for one hour incubation at 37 °C with 5% of CO2. Absorbance was measured using a microplate spectrophotometer (Thermo) at 450 nm. The ratio of cell viability of control was taken as 100%. […] Then IC50 of the compounds were investigated using the prism statistical software.
On the technique in general: Tetrazolium dyes change colour on reduction, which living cells bring about.

Data set [6] relates to LC3. Kind of data set: Western blot of LC3 in PC-9 cells. The following applies: PC-9, 0, 2, 4, 8 µM, 48 h.
Description: as §3, §4

Data set [7] has as its system γ-H2AX. The data set can be described thus: Western blot of γ-H2AX in PC-9 cells. The following applies: PC-9, 0, 2, 4, 8 µM, 48 h.
Description: as §3, §4

The test system of data set [8] is Caspase3. The data set can be described thus: Western blot of Caspase3 in PC-9 cells. The following applies: PC-9, 0, 2, 4, 8 µM, 48 h.
Description: as §3, §4

Data set [9] relates to H460. The data set can be described thus: CCK8 cell viability assay, H460. The following applies: for Cell viability (100%): H460, 20 µM, 48 h, CCK8, control = 100%; for IC50: H460, 48 h, CCK8, mean ± SE. The protocol: as §5
The test system of data set [10] is CyclinE. The data set can be described thus: Western blot of CyclinE in PC-9 cells. Particulars: PC-9, 0, 2, 4, 8 µM, 48 h.
Description: as §3, §4

Consider `COc1c2n(cc(C(=O)Nc3cccc(-c4cn(-c5cccc([N+](=O)[O-])c5C)nn4)c3)c1=O)C[C@@H]1OCC[C@@H](C)N1C2=O` [Compound 9e], for which the cell apoptosis result is “little influence” in [1] (PC-9, 2 µM or 4 µM); “significant effects on cell apoptosis” in data set [1] (PC-9, 8 µM); “significant increased apoptosis” in data set [3] (H460, 8 µM and 16 µM). The ROS generation result in data set [2] is given as “significantly increased”. For the same compound, the β-catenin expression result in [4] is given as “not affected”. Moreover, the “Cell viability (100%)” value in [5] was 24.05%; in data set [9] it was 30.94%. Moreover, the half-maximal inhibitory concentration (IC50) in data set [5] is 3.83 ± 0.73 µM; in data set [9], 11.8 ± 2.31 µM. Besides, in [6], the “expression of LC3” value is “significantly increased”. Further, the γ-H2AX expression entry in data set [7] is listed as “not affected”. Besides, in [8], the Caspase3 expression entry is “not changed”. The CyclinE expression entry in [10] is on record as “not affected”.
In the case of `COc1c2n(cc(C(=O)Nc3cccc(-c4cn(-c5cccc(C(F)(F)F)c5)nn4)c3)c1=O)C[C@@H]1OCC[C@@H](C)N1C2=O` [Compound 9p], the cell apoptosis result in data set [1] (PC-9, 2 µM or 4 µM) is on record as “little influence”; in [1] (PC-9, 8 µM), “significant effects on cell apoptosis”; in data set [3] (H460, 4 µM, 8 µM and 16 µM), “significantly increased apoptosis”. In data set [2], the ROS generation entry was “significantly increased”. Moreover, the β-catenin expression result in data set [4] is given as “not affected”. The “Cell viability (100%)” value in data set [5] came out at 2.11%; in data set [9], 5.63%. In addition, the results for the IC50 in data set [5] and in data set [9] were 3.17 ± 0.18 µM and 10.7 ± 0.48 µM, respectively. The “expression of LC3” value in data set [6] is on record as “significantly increased”. The γ-H2AX expression result in data set [7] is recorded as “not affected”. In addition, the Caspase3 expression result in [8] is listed as “not changed”. Further, in data set [10], the CyclinE expression entry was “not affected”.

A word on the IC50: it is the concentration needed to halve the response being measured. High values mean a need for much substance, low ones inhibition by little substance.

For the origin of these results see publication PMC11077815, “Synthesis and antitumor activity of dolutegravir derivatives bearing 1,2,3-triazole moieties” (BMC Chemistry, 2024).
